Laboratory results taken from patent US10676431B2, “Phenylpyrrolidinone formyl peptide 2 receptor agonists” (BRISTOL-MYERS SQUIBB COMPANY, priority 2018, dated 2020).

Legend:
human FPR1 = human FPR1 (Homo sapiens (Human), UniProt P21462); experiment: FPR1 cyclic adenosine monophosphate (cAMP) assay; assay type: cell-based; conditions: CHO cells overexpressing human FPR1; forskolin 10 μM, IBMX 200 μM; inhibition of cAMP production, HTRF; read-out: hFPR1 cAMP EC50
Description: FPR2 and FPR1 Cyclic Adenosine Monophosphate (cAMP) Assays. A mixture of forskolin (5 μM final for FPR2 or 10 μM final for FPR1) and IBMX (200 μM final) were added to 384-well Proxiplates (Perkin-Elmer) pre-dotted with test compounds in DMSO (1% final) at final concentrations in the range of 0.020 nM to 100 μM. Chinese Hamster Ovary cells (CHO) overexpressing human FPR1 or human FPR2 receptors were cultured in F-12 (Ham's) medium supplemented with 10% qualified FBS, 250 μg/ml zeocin and 300 μg/ml hygromycin (Life Technologies). Reactions were initiated by adding 2,000 human FPR2 cells per well or 4,000 human FPR1 cells per well in Dulbecco's PBS (with calcium and magnesium) (Life Technologies) supplemented with 0.1% BSA (Perkin-Elmer). The reaction mixtures were incubated for 30 min at room temperature. The level of intracellular cAMP was determined using the HTRF HiRange cAMP assay reagent kit (Cisbio) according to manufacturer's instruction. Solutions of cryptate conjugated anti-cAMP and d2 fluorophore-labelled cAMP were made in a supplied lysis buffer separately. Upon completion of the reaction, the cells were lysed with equal volume of the d2-cAMP solution and anti-cAMP solution. […] The potency and activity of a compound to inhibit cAMP production was then determined by fitting to a 4-parametric logistic equation from a plot of cAMP level versus compound concentrations.

human FPR2 = human FPR2 (Homo sapiens (Human), UniProt P25090); experiment: FPR2 cyclic adenosine monophosphate (cAMP) assay; assay type: cell-based; conditions: CHO cells overexpressing human FPR2; forskolin 5 μM, IBMX 200 μM; inhibition of cAMP production, HTRF; read-out: hFPR2 cAMP2 EC50
Description: FPR2 and FPR1 Cyclic Adenosine Monophosphate (cAMP) Assays. A mixture of forskolin (5 μM final for FPR2 or 10 μM final for FPR1) and IBMX (200 μM final) were added to 384-well Proxiplates (Perkin-Elmer) pre-dotted with test compounds in DMSO (1% final) at final concentrations in the range of 0.020 nM to 100 μM. Chinese Hamster Ovary cells (CHO) overexpressing human FPR1 or human FPR2 receptors were cultured in F-12 (Ham's) medium supplemented with 10% qualified FBS, 250 μg/ml zeocin and 300 μg/ml hygromycin (Life Technologies). Reactions were initiated by adding 2,000 human FPR2 cells per well or 4,000 human FPR1 cells per well in Dulbecco's PBS (with calcium and magnesium) (Life Technologies) supplemented with 0.1% BSA (Perkin-Elmer). The reaction mixtures were incubated for 30 min at room temperature. The level of intracellular cAMP was determined using the HTRF HiRange cAMP assay reagent kit (Cisbio) according to manufacturer's instruction. Solutions of cryptate conjugated anti-cAMP and d2 fluorophore-labelled cAMP were made in a supplied lysis buffer separately. Upon completion of the reaction, the cells were lysed with equal volume of the d2-cAMP solution and anti-cAMP solution. After a 1-h room temperature incubation, time-resolved fluorescence intensity was measured using the Envision (Perkin-Elmer) at 400 nm excitation and dual emission at 590 nm and 665 nm. A calibration curve was constructed with an external cAMP standard at concentrations ranging from 1 μM to 0.1 pM by plotting the fluorescent intensity ratio from 665 nm emission to the intensity from the 590 nm emission against cAMP concentrations. The potency and activity of a compound to inhibit cAMP production was then determined by fitting to a 4-parametric logistic equation from a plot of cAMP level versus compound concentrations.

Sequence of human FPR2 (P25090 whole entry): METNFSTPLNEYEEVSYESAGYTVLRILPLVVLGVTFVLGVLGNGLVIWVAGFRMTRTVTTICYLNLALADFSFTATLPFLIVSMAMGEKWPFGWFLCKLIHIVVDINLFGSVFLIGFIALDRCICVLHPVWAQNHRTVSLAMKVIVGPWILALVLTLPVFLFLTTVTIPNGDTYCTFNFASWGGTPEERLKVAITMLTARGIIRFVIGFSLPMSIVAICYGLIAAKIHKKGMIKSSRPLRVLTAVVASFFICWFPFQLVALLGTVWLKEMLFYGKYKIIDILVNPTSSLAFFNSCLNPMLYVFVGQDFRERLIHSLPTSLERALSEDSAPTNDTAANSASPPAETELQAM
Sequence of human FPR1 (P21462 whole entry): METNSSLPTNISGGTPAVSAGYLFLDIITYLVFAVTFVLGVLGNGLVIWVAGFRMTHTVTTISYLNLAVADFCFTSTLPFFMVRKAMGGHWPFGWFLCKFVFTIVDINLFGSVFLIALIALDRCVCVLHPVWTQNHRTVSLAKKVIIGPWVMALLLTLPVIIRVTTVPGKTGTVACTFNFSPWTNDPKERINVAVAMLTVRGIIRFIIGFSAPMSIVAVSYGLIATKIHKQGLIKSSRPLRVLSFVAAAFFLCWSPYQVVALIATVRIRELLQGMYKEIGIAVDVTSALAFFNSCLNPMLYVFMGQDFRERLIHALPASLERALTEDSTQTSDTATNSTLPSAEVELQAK

SMILES: O=C(Nc1ccc(Cl)cc1F)N[C@@H]1C[C@@H](CO)N(c2ccc(-c3ccccc3F)c(F)c2F)C1=O [Example 82]
- EC50 (human FPR1): 780 nM
- EC50 (human FPR2): 2.5 nM

SMILES: CCP(=O)(CC)c1ccccc1-c1ccc(N2CC[C@@H](NC(=O)Nc3ccc(C(F)(F)F)cc3F)C2=O)c(F)c1F [Example 68]
- EC50 (human FPR1): 150 nM
- EC50 (human FPR2): 0.53 nM

SMILES: CP(C)(=O)c1ccccc1-c1ccc(N2CC(CO)[C@@H](NC(=O)Nc3ccc(Cl)cc3F)C2=O)c(F)c1F (stereo partly shown) [Example 127]
- EC50 (human FPR1): 920 nM
- EC50 (human FPR2): 18 nM

SMILES: CP(C)(=O)c1ccccc1-c1ccc(N2C(=O)[C@H](NC(=O)Nc3ccc(C(F)(F)F)cc3F)C[C@H]2CO)c(F)c1F [Example 114]
- EC50 (human FPR1): 270 nM
- EC50 (human FPR2): 0.86 nM

SMILES: CC1(C)CN(c2ccc(-c3ccccc3P(C)(C)=O)c(F)c2F)C(=O)[C@@H]1NC(=O)Nc1ccc(C(F)(F)F)cc1F [Example 102]
- EC50 (human FPR1): 570 nM
- EC50 (human FPR2): 1.7 nM

SMILES: CP(C)(=O)c1ccccc1-c1ccc(N2CC[C@@H](NC(=O)Nc3ccc(C(F)(F)F)cn3)C2=O)c(F)c1F [Example 64]
- EC50 (human FPR1): 2900 nM
- EC50 (human FPR2): 8.8 nM

SMILES: CC1C[C@@H](NC(=O)Nc2ccc(C(F)(F)F)cc2F)C(=O)N1c1ccc(-c2cccnc2P(C)(C)=O)c(F)c1F (stereo partly shown) [Example 128]
- EC50 (human FPR1): 24 nM
- EC50 (human FPR2): 1 nM

SMILES: Cn1ccc(-c2ccc(N3CC[C@@H](NC(=O)Nc4ccc(Cl)cc4F)C3=O)c(F)c2F)n1 [Example 28]
- EC50 (human FPR1): 550 nM
- EC50 (human FPR2): 9.8 nM

SMILES: CC(C)c1cc(-c2ccccc2P(C)(C)=O)ccc1N1CC[C@@H](NC(=O)Nc2ncc(Cl)cc2F)C1=O [Example 61]
- EC50 (human FPR1): 370 nM
- EC50 (human FPR2): 23 nM

SMILES: CS(=O)(=O)Nc1ccccc1-c1ccc(N2CC[C@@H](NC(=O)Nc3c(F)cc(Cl)cc3F)C2=O)c(F)c1F [Example 4]
- EC50 (human FPR1): 1700 nM
- EC50 (human FPR2): 0.93 nM

SMILES: CP(C)(=O)c1ccccc1-c1ccc(N2CC[C@@H](NC(=O)Nc3cnc(Cl)cn3)C2=O)c(C2CC2)c1 [Example 62]
- EC50 (human FPR1): 720 nM
- EC50 (human FPR2): 31 nM

SMILES: CP(C)(=O)c1ccccc1-c1ccc(N2CC[C@@H](NC(=O)Nc3ccc(Cl)cc3F)C2=O)c(F)c1C(F)(F)F [Example 83]
- EC50 (human FPR1): 0.99 nM
- EC50 (human FPR2): 0.41 nM

SMILES: CS(=O)(=O)c1ccccc1-c1ccc(N2CC[C@@H](NC(=O)Nc3ccc(Cl)cc3)C2=O)c(F)c1F [Example 10]
- EC50 (human FPR1): 130 nM
- EC50 (human FPR2): 2.2 nM

SMILES: CC(C)c1cc(-c2cccnc2NS(C)(=O)=O)ccc1N1CC[C@@H](NC(=O)Nc2ccc(Cl)cc2F)C1=O [Example 47]
- EC50 (human FPR1): 64 nM
- EC50 (human FPR2): 2.8 nM

SMILES: CS(=O)(=O)c1ccccc1-c1ccc(N2C(=O)[C@H](NC(=O)Nc3ccc(C(F)(F)F)cc3F)C[C@H]2CO)c(F)c1F [Example 39]
- EC50 (human FPR1): 57 nM
- EC50 (human FPR2): 0.58 nM

SMILES: CS(=N)(=O)c1ccccc1-c1ccc(N2CC[C@@H](NC(=O)Nc3ccc(C(F)(F)F)cc3F)C2=O)c(F)c1F (stereo partly shown) [Example 66]
- EC50 (human FPR1): 580 nM
- EC50 (human FPR2): 4.9 nM

SMILES: CS(=O)(=O)c1ccccc1-c1ccc(N2CC[C@@H](NC(=O)Nc3ccc(C(F)(F)F)cc3)C2=O)c(F)c1F [Example 11]
- EC50 (human FPR1): 290 nM
- EC50 (human FPR2): 2.6 nM

SMILES: CP(C)(=O)c1ncccc1-c1ccc(N2CC[C@@H](NC(=O)Nc3ccc(Cl)cc3F)C2=O)c(F)c1F [Example 74]
- EC50 (human FPR1): 140 nM
- EC50 (human FPR2): 2.2 nM

SMILES: CCP(=O)(CC)c1ccccc1-c1ccc(N2CC[C@@H](NC(=O)Nc3ccc(Cl)cc3F)C2=O)c(F)c1F [Example 75]
- EC50 (human FPR1): 1180 nM
- EC50 (human FPR2): 3.4 nM

SMILES: CS(=O)(=O)Nc1ccccc1-c1ccc(N2CC[C@@H](NC(=O)Nc3ccc(C(F)(F)F)nc3)C2=O)cc1 [Example 20]
- EC50 (human FPR1): > 10000 nM
- EC50 (human FPR2): 24 nM

SMILES: CC1(C)CN(c2ccc(-c3cccnc3P(C)(C)=O)c(F)c2F)C(=O)[C@@H]1NC(=O)Nc1ccc(C(F)(F)F)cc1F [Example 110]
- EC50 (human FPR1): 640 nM
- EC50 (human FPR2): 1.1 nM

SMILES: CS(=O)(=O)Nc1ccccc1-c1ccc(N2CC[C@@H](NC(=O)Nc3ccc(Cl)cc3F)C2=O)c(C2CC2)c1 [Example 26]
- EC50 (human FPR1): 47 nM
- EC50 (human FPR2): 0.55 nM

SMILES: CP(C)(=O)c1c(F)cccc1-c1ccc(N2CC[C@@H](NC(=O)Nc3ccc(C(F)(F)F)cc3F)C2=O)c(F)c1F [Example 72]
- EC50 (human FPR1): 54 nM
- EC50 (human FPR2): 0.61 nM

SMILES: CS(=O)(=O)Nc1ccccc1-c1ccc(N2CC[C@@H](NC(=O)Nc3ccc(Cl)cc3)C2=O)c(F)c1F [Example 1, (R)—N-(4′-(3-(3-(4-Chlorophenyl)ureido)-2-oxopyrrolidin-1-yl)-2′,3′-difluoro-[1,1′-biphenyl]-2-yl)methanesulfonamide]
- EC50 (human FPR1): 200 nM
- EC50 (human FPR2): 0.43 nM

SMILES: CP(C)(=O)c1ccccc1-c1ccc(N2CC[C@@H](NC(=O)Nc3ccc(C(F)(F)F)cc3F)C2=O)c(F)c1F [Example 57, (R)-1-(1-(2′-(dimethylphosphoryl)-2,3-difluoro-[1,1′-biphenyl]-4-yl)-2-oxopyrrolidin-3-yl)-3-(2-fluoro-4-(trifluoromethyl)phenyl)urea]
- EC50 (human FPR1): 1000 nM
- EC50 (human FPR2): 0.95 nM

SMILES: CCOP(C)(=O)c1ccccc1-c1ccc(N2CC[C@@H](NC(=O)Nc3ccc(C(F)(F)F)cc3F)C2=O)c(F)c1F (stereo partly shown) [Example 104]
- EC50 (human FPR2): 5.2 nM

SMILES: N#Cc1ccccc1-c1ccc(N2CC[C@@H](NC(=O)Nc3ccc(Cl)cc3)C2=O)c(F)c1F [Example 8]
- EC50 (human FPR1): 61 nM
- EC50 (human FPR2): 2 nM

SMILES: CP(C)(=O)c1ccccc1-c1ccc(N2CC[C@@H](NC(=O)Nc3ccc(Cl)cc3F)C2=O)c(C(F)F)c1F [Example 107]
- EC50 (human FPR1): 5.8 nM
- EC50 (human FPR2): 11 nM

SMILES: CP(C)(=O)c1ccccc1-c1ccc(N2CC[C@@H](NC(=O)Nc3ccc(OC(F)(F)F)cc3F)C2=O)c(F)c1F [Example 69]
- EC50 (human FPR1): 5000 nM
- EC50 (human FPR2): 22 nM

SMILES: O=C(Nc1ccc(Cl)cc1F)N[C@@H]1CCN(c2ccc(-c3ccccc3N3CCOC3=O)c(F)c2F)C1=O [Example 119]
- EC50 (human FPR1): 190 nM
- EC50 (human FPR2): 14 nM

SMILES: O=C(Nc1ccc(Cl)cc1F)N[C@@H]1CCN(c2ccc(-c3cnn(C(F)F)c3)c(F)c2F)C1=O [Example 79]
- EC50 (human FPR1): > 10000 nM
- EC50 (human FPR2): 39 nM

SMILES: O=C(Nc1ccc(Cl)cc1F)N[C@@H]1CCN(c2ccc(-c3ccccc3CO)c(F)c2F)C1=O [Example 2]
- EC50 (human FPR1): 360 nM
- EC50 (human FPR2): 4.2 nM

SMILES: CP(C)(=O)c1ccccc1-c1cc(F)c(N2CC[C@@H](NC(=O)Nc3ccc(C(F)(F)F)cc3F)C2=O)c(F)c1 [Example 76]
- EC50 (human FPR1): 2100 nM
- EC50 (human FPR2): 4.1 nM

SMILES: CP(C)(=O)c1ccccc1-c1ccc(N2CC[C@@H](NC(=O)Nc3ccc(Cl)cc3F)C2=O)c(Cl)c1F [Example 99]
- EC50 (human FPR1): 240 nM
- EC50 (human FPR2): 0.79 nM

SMILES: CC1C[C@@H](NC(=O)Nc2ccc(C(F)(F)F)cc2F)C(=O)N1c1ccc(-c2ccccc2P(C)(C)=O)c(F)c1F (stereo partly shown) [Example 116]
- EC50 (human FPR1): 890 nM
- EC50 (human FPR2): 1.21 nM

SMILES: CP(C)(=O)c1ccccc1-c1ccc(N2CC[C@@H](NC(=O)Nc3ccc(Cl)cc3F)C2=O)c2c1OC(F)(F)O2 [Example 106]
- EC50 (human FPR1): 3.5 nM
- EC50 (human FPR2): 3.1 nM

SMILES: CP(C)(=O)c1ccccc1-c1ccc(N2CC[C@@H](NC(=O)Nc3ccc(Cl)cc3F)C2=O)c(C(F)(F)F)c1F [Example 91, (R)-1-(4-Chloro-2-fluorophenyl)-3-(1-(2′-(dimethylphosphoryl)-2-fluoro-3-(trifluoromethyl)-[1,1′-biphenyl]-4-yl)-2-oxopyrrolidin-3-yl)urea]
- EC50 (human FPR1): 200 nM
- EC50 (human FPR2): 5.7 nM

SMILES: CCOP(C)(=O)c1ccccc1-c1ccc(N2CC[C@@H](NC(=O)Nc3ccc(Cl)cc3F)C2=O)c(F)c1F (stereo partly shown) [Example 101]
- EC50 (human FPR2): 0.66 nM

SMILES: COP(=O)(OC)c1ccccc1-c1ccc(N2CC[C@@H](NC(=O)Nc3ccc(C(F)(F)F)cc3F)C2=O)c(F)c1F [Example 108]
- EC50 (human FPR2): 1.4 nM

SMILES: CCOP(C)(=O)c1ccccc1-c1ccc(N2CC[C@@H](NC(=O)Nc3ccc(C(F)(F)F)cc3F)C2=O)c(F)c1F (stereo partly shown) [Example 105]
- EC50 (human FPR2): 6.9 nM
